Laboratory results as given in patent US20150231134A1, “Combination Therapy using Belinostat and Trabectedin” (Onxeo DK, Branch of Onxeo S.A., France, priority 2012, published 2015).
Like-named read-outs stand apart in the source and are kept apart here.

Assays:
[1] = physiological pH; cited from earlier work
[2] = system: MesSa human sarcoma xenograft; format: in vivo
Procedure: The xenograft model used the MesSa cell line (ATCC: CRL-1976 human sarcoma cells) (in vitro cell passage number 67 from frozen stock (number 65) on day 5). Tumour cells (1×10^7) (trypsinated) (100 μL in 100 μL matrigel) were injected subcutaneously (s.c.) into the right flank of each mouse, with one node per mouse. The time from cell dilution to the end of injection was 24 minutes. Each mouse was anaesthetised with Hypnorm/Dormicum subcutaneously (s.c.) or isofluran (by inhalation) when the tumour cells were injected.
Four groups, each of 12 mice, were treated with vehicle, belinostat only, trabectedin only, or both belinostat and trabectedin, for three weeks, as summarised in the following table. On days that belinostat was administered, it was administered twice, with a 3 hour interval. On days that both belinostat and trabectedin were administered, the trabectedin was administered between the two belinostat administrations.
Mice were enrolled in treatment groups following confirmation of xenograft take. Both tumour diameter and body weight were measured on days: 0, 3, 7, 10, 14, 17, and 21. Animals were sacrificed (by cervical dislocation) on day 21. Tumour weight was measured on day 21 (following sacrifice).
“T/C%” denotes tumour weight following treatment as a percent of control, using Mann-Whitney statistical analysis. The results (median tumour volume) are also illustrated in FIG. 4.
“T/C%” denotes tumour weight following treatment as a percent of control, using Mann-Whitney statistical analysis. The results (median tumour weight) are also illustrated in FIG. 5.

Sarcoma Cells (MesSa) = assay: Clonogenic assay (continuous co-incubation), sarcoma cells MesSa; format: cell-based, human
Procedure: (§1) The effects of the combination of belinostat and trabectedin were studied in clonogenic assays. The clonogenic assay assesses anti-clonogenic activity of tumour cells. The “target” in clonogenic assay is all biochemical and molecular elements or alterations characteristic of tumour cells rather than specific single targets.
(§2) Cells were grown for at least 1 week after thawing in standard media to obtain a sub-confluent culture. The 3.3% agar was boiled for at least 60 minutes in a water bath on an electrical heating plate (30 mL PBS+990 mg Bacto agar). The 90 mL growth medium (RPMI-1640+10% FCS) was heated in a water bath at 37° C. Cells were centrifuged in 50 mL centrifuge tubes at 1200 rpm for 5 minutes at room temperature.
(§3) Drug (belinostat or trabectedin) was dissolved and diluted with growth medium or DMSO to a concentration of […] the final concentration.
(§4) Cells were suspended in 7 mL growth medium using a 1 mL syringe and an 18 gauge needle by pumping the solution up and down 15 times. Cells were stained with Nigrosin (0.3 mL cells+0.3 mL 0.1% Nigrosin in PBS), and counted after 8 minutes using a Fuchs-Rosenthal counting chamber.
(§5) Then, 10 mL agar and 90 mL growth medium was mixed (0.33%) and heated in a water bath at 37° C. 0.35 mL cell suspension was transferred to 10 mL conical centrifuge tubes using a dispenser. 35 μL drug (belinostat or trabectedin) was added. 3.15 mL agar/medium was added to each tube (maximum 8 tubes at the time).
(§6) For each belinostat combination tested series of 7 titrations corresponding to approximately 30, 40, 50, 60, 70, 80, 90% inhibition was tested as mono-therapy and in combination.
(§7) The Combination Index (CI) provides a measure of the interaction: A CI value of less than 1 indicates synergy, a CI value of 1 indicates an additive effect, and a CI value of greater than 1 indicates antagonism.

[3] = system: Osteocarcinoma Cells (Saos-2); assay: Clonogenic assay (continuous co-incubation), osteocarcinoma cells Saos-2; format: cell-based
Procedure: as §1, §2, §3, §4, §5, §6, §7

[4] = system: Ovarian Cancer Cells (A2780); assay: Clonogenic assay (continuous co-incubation), ovarian cancer cells A2780; format: cell-based
Procedure: as §1, §2, §3, §4, §5, §6, §7

soft-tissue sarcoma = details: patients with soft-tissue sarcoma, pivotal clinical trial; cited from earlier work
[5] = day 0, belinostat 40 mg/kg i.p. twice daily, days 0-4, 7-11, 14-18
[6] = day 4, belinostat 40 mg/kg i.p. twice daily, days 0-4, 7-11, 14-18
[7] = day 7, belinostat 40 mg/kg i.p. twice daily, days 0-4, 7-11, 14-18
[8] = day 10, belinostat 40 mg/kg i.p. twice daily, days 0-4, 7-11, 14-18
[9] = day 14, belinostat 40 mg/kg i.p. twice daily, days 0-4, 7-11, 14-18
[10] = day 17, belinostat 40 mg/kg i.p. twice daily, days 0-4, 7-11, 14-18
[11] = day 0, trabectedin 0.1 mg/kg i.v. once, days 0, 3, 7, 10
[12] = day 4, trabectedin 0.1 mg/kg i.v. once, days 0, 3, 7, 10
[13] = day 7, trabectedin 0.1 mg/kg i.v. once, days 0, 3, 7, 10
[14] = day 10, trabectedin 0.1 mg/kg i.v. once, days 0, 3, 7, 10
[15] = day 14, trabectedin 0.1 mg/kg i.v. once, days 0, 3, 7, 10
[16] = day 17, trabectedin 0.1 mg/kg i.v. once, days 0, 3, 7, 10

SMILES: O=C(/C=C/c1cccc(S(=O)(=O)Nc2ccccc2)c1)NO [Belinostat, (E)-N-hydroxy-3-(3-phenylsulfamoyl-phenyl)-acrylamide]
- solubility in water [1]: sparingly soluble
- tumour growth delay (in words) ([2]; belinostat 40 mg/kg, twice daily, i.p., 5 days per week for 3 weeks): some but not significant tumour growth delay
- Median Tumour Volume, Belinostat Only [2, 5]: 65 mm^3
- T/C % (tumour volume), Belinostat Only [2, 5]: 75%
- Median Tumour Volume, Belinostat Only [2, 6]: 71 mm^3
- T/C % (tumour volume), Belinostat Only [2, 6]: 81%
- Median Tumour Volume, Belinostat Only [2, 7]: 76 mm^3
- T/C % (tumour volume), Belinostat Only [2, 7]: 67%
- Median Tumour Volume, Belinostat Only [2, 8]: 87 mm^3
- T/C % (tumour volume), Belinostat Only [2, 8]: 39%
- Median Tumour Volume, Belinostat Only [2, 9]: 144 mm^3
- T/C % (tumour volume), Belinostat Only [2, 9]: 59%
- Median Tumour Volume, Belinostat Only [2, 10]: 295 mm^3
- T/C % (tumour volume), Belinostat Only [2, 10]: 66%
- Median Tumour Volume, Belinostat Only ([2]; day 21, belinostat 40 mg/kg i.p. twice daily, days 0-4, 7-11, 14-18): 449 mm^3
- T/C % (tumour volume), Belinostat Only ([2]; day 21, belinostat 40 mg/kg i.p. twice daily, days 0-4, 7-11, 14-18, p=0.10): 67%
- T/C % (tumour weight), Belinostat Alone ([2]; day 21, belinostat 40 mg/kg i.p. twice daily, days 0-4, 7-11, 14-18, p=0.180): 77%
- reduction in growth (tumour volume) ([2]; day 21, belinostat 40 mg/kg, twice daily, i.p., 5 days per week for 3 weeks, p=0.10): 33%
- reduction in growth (tumour weight) ([2]; day 21, belinostat 40 mg/kg, twice daily, i.p., 5 days per week for 3 weeks, p=0.180): 23%
- Belinostat Alone (% survival) (Sarcoma Cells (MesSa); belinostat 0.27 μM): 88.48%
- Belinostat Alone (% survival) (Sarcoma Cells (MesSa); belinostat 0.37 μM): 68.82%
- Belinostat Alone (% survival) (Sarcoma Cells (MesSa); belinostat 0.48 μM): 57.06%
- Belinostat Alone (% survival) (Sarcoma Cells (MesSa); belinostat 0.57 μM): 42.92%
- Belinostat Alone (% survival) (Sarcoma Cells (MesSa); belinostat 0.66 μM): 37.33%
- Belinostat Alone (% survival) (Sarcoma Cells (MesSa); belinostat 0.80 μM): 17.90%
- Belinostat Alone (% survival) (Sarcoma Cells (MesSa); belinostat 1.0 μM): 2.75%
- Belinostat Alone (% survival) ([3]; belinostat 0.065 μM): 86.96%
- Belinostat Alone (% survival) ([3]; belinostat 0.10 μM): 66.47%
- Belinostat Alone (% survival) ([3]; belinostat 0.115 μM): 69.29%
- Belinostat Alone (% survival) ([3]; belinostat 0.13 μM): 74.52%
- Belinostat Alone (% survival) ([3]; belinostat 0.145 μM): 45.50%
- Belinostat Alone (% survival) ([3]; belinostat 0.19 μM): 38.34%
- Belinostat Alone (% survival) ([3]; belinostat 0.225 μM): 30.59%
- Belinostat Alone (% survival) ([4]; belinostat 0.04 μM): 97.74%
- Belinostat Alone (% survival) ([4]; belinostat 0.36 μM): 82.64%
- Belinostat Alone (% survival) ([4]; belinostat 0.47 μM): 65.30%
- Belinostat Alone (% survival) ([4]; belinostat 0.56 μM): 31.60%
- Belinostat Alone (% survival) ([4]; belinostat 0.63 μM): 15.82%
- Belinostat Alone (% survival) ([4]; belinostat 0.68 μM): 7.19%
- Belinostat Alone (% survival) ([4]; belinostat 0.73 μM): 2.42%

SMILES: COc1cc2c(cc1O)CCN[C@]21CS[C@@H]2c3c(OC(C)=O)c(C)c4c(c3[C@H](COC1=O)N1[C@@H]2[C@H]2c3c(cc(C)c(OC)c3O)C[C@@H]([C@@H]1O)N2C)OCO4 (relative stereo) [Trabectedin, spiro[6,16-(epithiopropanoxymethano)-7,13-imino-12H-1,3-dioxolo[7,8]isoquino[3,2-b][3]benzazocine-20,1′(2′H)-isoquinolin]-19-one, 5-(acetyloxy)-3′,4′,6,6a,7,13,14,16-octahydro-6′,8,14-trihydroxy-7′,9-dimethoxy-4,10,23-trimethyl-, [6R-(6α,6aβ,7β,13β,14β,16α,20R*)]]
- Median Tumour Volume, Trabectedin Only [2, 11]: 87 mm^3
- T/C % (tumour volume), Trabectedin Only [2, 11]: 100%
- Median Tumour Volume, Trabectedin Only [2, 12]: 87 mm^3
- T/C % (tumour volume), Trabectedin Only [2, 12]: 100%
- Median Tumour Volume, Trabectedin Only [2, 13]: 57 mm^3
- T/C % (tumour volume), Trabectedin Only [2, 13]: 50%
- Median Tumour Volume, Trabectedin Only [2, 14]: 65 mm^3
- T/C % (tumour volume), Trabectedin Only [2, 14]: 29%
- Median Tumour Volume, Trabectedin Only [2, 15]: 76 mm^3
- T/C % (tumour volume), Trabectedin Only [2, 15]: 31%
- Median Tumour Volume, Trabectedin Only [2, 16]: 134 mm^3
- T/C % (tumour volume), Trabectedin Only [2, 16]: 30%
- Median Tumour Volume, Trabectedin Only ([2]; day 21, trabectedin 0.1 mg/kg i.v. once, days 0, 3, 7, 10): 167 mm^3
- T/C % (tumour volume), Trabectedin Only ([2]; day 21, trabectedin 0.1 mg/kg i.v. once, days 0, 3, 7, 10, p=0.01): 25%
- T/C % (tumour weight), Trabectedin Alone ([2]; day 21, trabectedin 0.1 mg/kg i.v. once, days 0, 3, 7, 10, p=0.027): 30%
- reduction in growth (tumour volume) ([2]; day 21, trabectedin 0.1 mg/kg, once daily, i.v., days 0, 3, 7, 10, p=0.01): 75%
- reduction in growth (tumour weight) ([2]; day 21, trabectedin 0.1 mg/kg, once daily, i.v., days 0, 3, 7, 10, p=0.027): 70%
- tumour growth delay (in words) ([2]; trabectedin 0.1 mg/kg, once daily, i.v., days 0, 3, 7, 10 of a 3 week cycle): significant tumour growth delay
- time-to-tumour-progression (TTP) (soft-tissue sarcoma): 3.9 months
- Trabectedin Alone (% survival) (Sarcoma Cells (MesSa); trabectedin 0.20 nM): 86.17%
- Trabectedin Alone (% survival) (Sarcoma Cells (MesSa); trabectedin 0.46 nM): 87.51%
- Trabectedin Alone (% survival) (Sarcoma Cells (MesSa); trabectedin 0.64 nM): 81.84%
- Trabectedin Alone (% survival) (Sarcoma Cells (MesSa); trabectedin 0.75 nM): 67.10%
- Trabectedin Alone (% survival) (Sarcoma Cells (MesSa); trabectedin 0.86 nM): 42.38%
- Trabectedin Alone (% survival) (Sarcoma Cells (MesSa); trabectedin 0.97 nM): 33.98%
- Trabectedin Alone (% survival) (Sarcoma Cells (MesSa); trabectedin 1.1 nM): 26.55%
- Trabectedin Alone (% survival) ([3]; trabectedin 0.005 nM): 79.99%
- Trabectedin Alone (% survival) ([3]; trabectedin 0.010 nM): 77.74%
- Trabectedin Alone (% survival) ([3]; trabectedin 0.09 nM): 74.94%
- Trabectedin Alone (% survival) ([3]; trabectedin 0.13 nM): 69.14%
- Trabectedin Alone (% survival) ([3]; trabectedin 0.17 nM): 60.61%
- Trabectedin Alone (% survival) ([3]; trabectedin 0.21 nM): 65.08%
- Trabectedin Alone (% survival) ([3]; trabectedin 0.26 nM): 49.99%
- Trabectedin Alone (% survival) ([4]; trabectedin 0.66 nM): 75.33%
- Trabectedin Alone (% survival) ([4]; trabectedin 0.73 nM): 62.12%
- Trabectedin Alone (% survival) ([4]; trabectedin 0.80 nM): 49.62%
- Trabectedin Alone (% survival) ([4]; trabectedin 0.84 nM): 44.20%
- Trabectedin Alone (% survival) ([4]; trabectedin 0.88 nM): 44.06%
- Trabectedin Alone (% survival) ([4]; trabectedin 0.92 nM): 36.20%
- Trabectedin Alone (% survival) ([4]; trabectedin 0.96 nM): 28.69%
